Laboratory results taken from ChEMBL document CHEMBL3045684, “Compatibility of traditional and novel acaricides with bumblebees (Bombus terrestris): a first laboratory assessment of toxicity and sublethal effects” (Pest Manag Sci, 2010).
Active and inactive are the calls of the source. No cut-off for these calls is given here.

Experiments:
Bombus terrestris [1] = assay: Toxicity against worker Bombus terrestris (bumblebee) assessed as mortality at 150 mg a.i./l, po administered through pollen for 11 weeks measured everyday for 3 days followed by once a week for 11 weeks; assay type: functional, organism-based
Bombus terrestris [2] = assay: Toxicity against worker Bombus terrestris (bumblebee) assessed as mortality at 150 mg a.i./l, po administered through sugar water for 11 weeks measured everyday for 3 days followed by once a week for 11 weeks; assay type: functional
Bombus terrestris [3] = assay: Toxicity against worker Bombus terrestris (bumblebee) assessed as reduction in reproduction at 150 mg a.i./l, po administered through pollen for 11 weeks measured once a week for 11 weeks; assay type: functional; design: scale not given: the % may be the effect or the level left
Bombus terrestris [4] = assay: Contact toxicity against worker Bombus terrestris (bumblebee) assessed as reduction in reproduction at 150 mg a.i./l applied on the dorsal thorax for 11 weeks measured once a week for 11 weeks relative to control; assay type: functional, organism-based
Bombus terrestris [5] = assay: Contact toxicity against worker Bombus terrestris (bumblebee) assessed as mortality at 150 mg a.i./l applied on the dorsal thorax for 11 weeks measured everyday for 3 days followed by once a week for 11 weeks; assay type: functional
Bombus terrestris [6] = assay: Toxicity against worker Bombus terrestris (bumblebee) assessed as reduction in reproduction at 150 mg a.i./l, po administered through sugar water for 11 weeks measured once a week for 11 weeks relative to control; assay type: functional, organism-based
Bombus terrestris [7] = assay: Toxicity against worker Bombus terrestris (bumblebee) assessed as mortality at 500 mg a.i./l, po administered through sugar water for 11 weeks measured everyday for 3 days followed by once a week for 11 weeks; assay type: functional
Bombus terrestris [8] = assay: Contact toxicity against worker Bombus terrestris (bumblebee) assessed as reduction in reproduction at 500 mg a.i./l applied on the dorsal thorax for 11 weeks measured once a week for 11 weeks relative to control; assay type: functional, organism-based
Bombus terrestris [9] = assay: Toxicity against worker Bombus terrestris (bumblebee) assessed as mortality at 500 mg a.i./l, po administered through pollen for 11 weeks measured everyday for 3 days followed by once a week for 11 weeks; assay type: functional, organism-based
Bombus terrestris [10] = assay: Toxicity against worker Bombus terrestris (bumblebee) assessed as reduction in reproduction at 500 mg a.i./l, po administered through sugar water for 11 weeks measured once a week for 11 weeks relative to control; assay type: functional, organism-based
Bombus terrestris [11] = assay: Toxicity against worker Bombus terrestris (bumblebee) assessed as reduction in reproduction at 500 mg a.i./l, po administered through pollen for 11 weeks measured once a week for 11 weeks; assay type: functional; design: scale not given: the % may be the effect or the level left
Bombus terrestris [12] = assay: Contact toxicity against worker Bombus terrestris (bumblebee) assessed as mortality at 500 mg a.i./l applied on the dorsal thorax for 11 weeks measured everyday for 3 days followed by once a week for 11 weeks; assay type: functional
Bombus terrestris [13] = assay: Toxicity against worker Bombus terrestris (bumblebee) assessed as reduction in reproduction at 100 mg a.i./l, po administered through pollen for 11 weeks measured once a week for 11 weeks; assay type: functional; design: scale not given: the % may be the effect or the level left
Bombus terrestris [14] = assay: Toxicity against worker Bombus terrestris (bumblebee) assessed as reduction in reproduction at 10 mg a.i./l, po administered through sugar water for 11 weeks measured once a week for 11 weeks relative to control; assay type: functional, organism-based
Bombus terrestris [15] = assay: Toxicity against worker Bombus terrestris (bumblebee) assessed as reduction in reproduction at 100 mg a.i./l, po administered through sugar water for 11 weeks measured once a week for 11 weeks relative to control; assay type: functional, organism-based
Bombus terrestris [16] = assay: Contact toxicity against worker Bombus terrestris (bumblebee) assessed as mortality at 10 mg a.i./l applied on the dorsal thorax for 11 weeks measured everyday for 3 days followed by once a week for 11 weeks; assay type: functional
Bombus terrestris [17] = assay: Toxicity against worker Bombus terrestris (bumblebee) assessed as reduction in reproduction at 200 mg a.i./l, po administered through pollen for 11 weeks measured once a week for 11 weeks; assay type: functional; design: scale not given: the % may be the effect or the level left
Bombus terrestris [18] = assay: Contact toxicity against worker Bombus terrestris (bumblebee) assessed as reduction in reproduction at 10 mg a.i./l applied on the dorsal thorax for 11 weeks measured once a week for 11 weeks relative to control; assay type: functional, organism-based
Bombus terrestris [19] = assay: Toxicity against worker Bombus terrestris (bumblebee) assessed as mortality at 200 mg a.i./l, po administered through sugar water for 11 weeks measured everyday for 3 days followed by once a week for 11 weeks; assay type: functional
Bombus terrestris [20] = assay: Contact toxicity against worker Bombus terrestris (bumblebee) assessed as mortality at 100 mg a.i./l applied on the dorsal thorax for 11 weeks measured everyday for 3 days followed by once a week for 11 weeks; assay type: functional
Bombus terrestris [21] = assay: Toxicity against worker Bombus terrestris (bumblebee) assessed as reduction in reproduction at 10 mg a.i./l, po administered through pollen for 11 weeks measured once a week for 11 weeks; assay type: functional; design: scale not given: the % may be the effect or the level left
Bombus terrestris [22] = assay: Toxicity against worker Bombus terrestris (bumblebee) assessed as mortality at 100 mg a.i./l, po administered through sugar water for 11 weeks measured everyday for 3 days followed by once a week for 11 weeks; assay type: functional
Bombus terrestris [23] = assay: Toxicity against worker Bombus terrestris (bumblebee) assessed as mortality at 10 mg a.i./l, po administered through sugar water for 11 weeks measured everyday for 3 days followed by once a week for 11 weeks; assay type: functional
Bombus terrestris [24] = assay: Toxicity against worker Bombus terrestris (bumblebee) assessed as mortality at 10 mg a.i./l, po administered through pollen for 11 weeks measured everyday for 3 days followed by once a week for 11 weeks; assay type: functional, organism-based
Bombus terrestris [25] = assay: Contact toxicity against worker Bombus terrestris (bumblebee) assessed as reduction in reproduction at 100 mg a.i./l applied on the dorsal thorax for 11 weeks measured once a week for 11 weeks relative to control; assay type: functional, organism-based
Bombus terrestris [26] = assay: Contact toxicity against worker Bombus terrestris (bumblebee) assessed as mortality at 200 mg a.i./l applied on the dorsal thorax for 11 weeks measured everyday for 3 days followed by once a week for 11 weeks; assay type: functional
Bombus terrestris [27] = assay: Toxicity against worker Bombus terrestris (bumblebee) assessed as mortality at 100 mg a.i./l, po administered through pollen for 11 weeks measured everyday for 3 days followed by once a week for 11 weeks; assay type: functional
Bombus terrestris [28] = assay: Toxicity against worker Bombus terrestris (bumblebee) assessed as mortality at 200 mg a.i./l, po administered through pollen for 11 weeks measured everyday for 3 days followed by once a week for 11 weeks; assay type: functional
Bombus terrestris [29] = assay: Toxicity against worker Bombus terrestris (bumblebee) assessed as reduction in reproduction at 200 mg a.i./l, po administered through sugar water for 11 weeks measured once a week for 11 weeks relative to control; assay type: functional, organism-based
Bombus terrestris [30] = assay: Contact toxicity against worker Bombus terrestris (bumblebee) assessed as reduction in reproduction at 200 mg a.i./l applied on the dorsal thorax for 11 weeks measured once a week for 11 weeks relative to control; assay type: functional, organism-based
Bombus terrestris [31] = assay: Toxicity against worker Bombus terrestris (bumblebee) assessed as reduction in reproduction at 96 mg a.i./l, po administered through pollen for 11 weeks measured once a week for 11 weeks; assay type: functional, organism-based
Bombus terrestris [32] = assay: Toxicity against worker Bombus terrestris (bumblebee) assessed as reduction in reproduction at 96 mg a.i./l, po administered through sugar water for 11 weeks measured once a week for 11 weeks relative to control; assay type: functional, organism-based
Bombus terrestris [33] = assay: Contact toxicity against worker Bombus terrestris (bumblebee) assessed as reduction in reproduction at 96 mg a.i./l applied on the dorsal thorax for 11 weeks measured once a week for 11 weeks relative to control; assay type: functional, organism-based
Bombus terrestris [34] = assay: Toxicity against worker Bombus terrestris (bumblebee) assessed as mortality at 96 mg a.i./l, po administered through sugar water for 11 weeks measured everyday for 3 days followed by once a week for 11 weeks; assay type: functional
Bombus terrestris [35] = assay: Contact toxicity against worker Bombus terrestris (bumblebee) assessed as mortality at 96 mg a.i./l applied on the dorsal thorax for 11 weeks measured everyday for 3 days followed by once a week for 11 weeks; assay type: functional
Bombus terrestris [36] = assay: Toxicity against worker Bombus terrestris (bumblebee) assessed as mortality at 96 mg a.i./l, po administered through pollen for 11 weeks measured everyday for 3 days followed by once a week for 11 weeks; assay type: functional, organism-based
Bombus terrestris [37] = assay: Contact toxicity against worker Bombus terrestris (bumblebee) assessed as reduction in reproduction at 75 mg a.i./l applied on the dorsal thorax for 11 weeks measured once a week for 11 weeks relative to control; assay type: functional, organism-based
Bombus terrestris [38] = assay: Contact toxicity against worker Bombus terrestris (bumblebee) assessed as mortality at 75 mg a.i./l applied on the dorsal thorax for 11 weeks measured everyday for 3 days followed by once a week for 11 weeks; assay type: functional
Bombus terrestris [39] = assay: Toxicity against worker Bombus terrestris (bumblebee) assessed as mortality at 75 mg a.i./l, po administered through pollen for 11 weeks measured everyday for 3 days followed by once a week for 11 weeks; assay type: functional
Bombus terrestris [40] = assay: Contact toxicity against worker Bombus terrestris (bumblebee) assessed as mortality at 75 mg a.i./l applied on the dorsal thorax measured up to 1 week; assay type: functional, organism-based
Bombus terrestris [41] = assay: Toxicity against worker Bombus terrestris (bumblebee) assessed as mortality at 75 mg a.i./l, po administered through sugar water measured after 9 to 11 weeks; assay type: functional, organism-based
Bombus terrestris [42] = assay: Toxicity against worker Bombus terrestris (bumblebee) assessed as reduction in reproduction at 75 mg a.i./l, po administered through sugar water for 11 weeks measured once a week for 11 weeks relative to control; assay type: functional, organism-based
Bombus terrestris [43] = assay: Toxicity against worker Bombus terrestris (bumblebee) assessed as mortality at 75 mg a.i./l, po administered through sugar water for 11 weeks measured everyday for 3 days followed by once a week for 11 weeks; assay type: functional
Bombus terrestris [44] = assay: Toxicity against worker Bombus terrestris (bumblebee) assessed as reduction in reproduction at 75 mg a.i./l, po administered through pollen for 11 weeks measured once a week for 11 weeks; assay type: functional, organism-based

With `CCCCCCCCCCCCC1=C(OC(C)=O)C(=O)c2ccccc2C1=O` [ACEQUINOCYL] the Activity (Bombus terrestris [1]) was “inactive”, the mortality at 150 µg/mL (Bombus terrestris [2]) was less than 25% and the Activity (Bombus terrestris [3]) was 50%. The Activity (Bombus terrestris [4]) was “Active”, the mortality at 150 µg/mL (Bombus terrestris [5]) was less than 25% and the Activity (Bombus terrestris [6]) was “Active”.

In the case of `ClC1=C(Cl)C(Cl)(C2(Cl)C(Cl)=C(Cl)C(Cl)=C2Cl)C(Cl)=C1Cl` [DIENOCHLOR], the mortality at 500 µg/mL (Bombus terrestris [7]) is reported as 85%, the Activity (Bombus terrestris [8]) is reported as “inactive” and the Activity (Bombus terrestris [9]) is reported as “inactive”. For the same molecule, the Activity (Bombus terrestris [10]) was “Active”, the Activity (Bombus terrestris [11]) was 50% and the mortality at 500 µg/mL (Bombus terrestris [12]) was less than 25%.

`CCc1nn(C)c(C(=O)NCc2ccc(C(C)(C)C)cc2)c1Cl` [TEBUFENPYRAD] was tested, and the Activity (Bombus terrestris [13]) was 50%, the Activity (Bombus terrestris [14]) was “Active” and the Activity (Bombus terrestris [15]) was “Active”. For the same molecule, the mortality at 10 µg/mL (Bombus terrestris [16]) was less than 25%, the Activity (Bombus terrestris [17]) was 50% and the Activity (Bombus terrestris [18]) was “inactive”. For the same molecule, the mortality at 200 µg/mL (Bombus terrestris [19]) was 50%, the mortality at 100 µg/mL (Bombus terrestris [20]) was less than 25% and the Activity (Bombus terrestris [21]) was 50%. For the same molecule, the mortality at 100 µg/mL (Bombus terrestris [22]) was 50%, the mortality at 10 µg/mL (Bombus terrestris [23]) was 50% and the Activity (Bombus terrestris [24]) was “inactive”. For the same molecule, the Activity (Bombus terrestris [25]) was “inactive”, the mortality at 200 µg/mL (Bombus terrestris [26]) was less than 25% and the mortality at 100 µg/mL (Bombus terrestris [27]) was 90%. The mortality at 200 µg/mL (Bombus terrestris [28]) was 90%, the Activity (Bombus terrestris [29]) was “Active” and the Activity (Bombus terrestris [30]) was “inactive”.

With `CCC(C)(C)C(=O)OC1=C(c2ccc(Cl)cc2Cl)C(=O)OC12CCCCC2` [SPIRODICLOFEN] the Activity (Bombus terrestris [31]) was “Active”, the Activity (Bombus terrestris [32]) was “Active” and the Activity (Bombus terrestris [33]) was “inactive”. For the same molecule, the mortality at 96 µg/mL (Bombus terrestris [34]) was less than 25%, the mortality at 96 µg/mL (Bombus terrestris [35]) was less than 25% and the Activity (Bombus terrestris [36]) was “inactive”.

In the case of `CC(C)(C)c1ccc(CSc2cnn(C(C)(C)C)c(=O)c2Cl)cc1` [PYRIDABEN], the Activity (Bombus terrestris [37]) is reported as “inactive”, the mortality at 75 µg/mL (Bombus terrestris [38]) is reported as 50% and the mortality at 75 µg/mL (Bombus terrestris [39]) is reported as 90%. For the same molecule, the Activity (Bombus terrestris [40]) was “Active”, the Activity (Bombus terrestris [41]) was “Active” and the Activity (Bombus terrestris [42]) was “Active”. For the same molecule, the mortality at 75 µg/mL (Bombus terrestris [43]) was 95% and the Activity (Bombus terrestris [44]) was “Active”.
